From PubChem BioAssay (NCI) come the findings set out here.

Where “and” joins values, the source holds several entries; their conditions need not be identical. Equal values may be shown once.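 Five compound concentrations were applied to cells in 96-well plates for 48 hours; endpoints were derived by simple linear interpolation of the resulting dose-response curve. GI50 marks 50% less growth. TGI marks complete inhibition of growth.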

Some test systems named below: HCT-116 colon; PC-3 prostate; SR leukemia; CCRF-CEM leukemia; SF-539 CNS; LOX IMVI melanoma; NCI-H460 lung; OVCAR-8 ovarian; SK-MEL-28 melanoma; NCI-H522 lung.
Holding throughout (experiment): inhibition of tumour cell growth, NCI panel, 48 h

With `CN(C)c1cccc(NC2=NCCO2)c1`, the TGI with HCT-116 colon is more than 100 µM; in the experiment on PC-3 prostate it was more than 100 µM; with SR leukemia it was 99.6 µM; with CCRF-CEM leukemia, more than 100 µM; in the experiment on SF-539 CNS, more than 100 µM; in the experiment with LOX IMVI melanoma, more than 100 µM. The TGI in the experiment with NCI-H460 lung, in the experiment on OVCAR-8 ovarian, in the experiment on SK-MEL-28 melanoma and in the experiment on NCI-H522 lung was more than 100 µM each time.

Turning to `CC1=NC(=Cc2ccc([N+](=O)[O-])cc2)C(=O)N1n1c(-c2ccccc2)nc2ccccc2c1=O`, the TGI in the experiment with HCT-116 colon, in the experiment with PC-3 prostate, in the experiment with SR leukemia, with CCRF-CEM leukemia, with SF-539 CNS and with LOX IMVI melanoma was more than 100 µM each time. The TGI in the experiment on OVCAR-8 ovarian was more than 100 µM; in the experiment with SK-MEL-28 melanoma, more than 100 µM; in the experiment with NCI-H522 lung, 74.5 µM.

Regarding `CN1C(=O)C2(c3ccccc31)N(c1ccc(Cl)cc1)C(=O)C2(c1ccccc1)c1ccccc1` (stereo not drawn), the GI50 with HCT-116 colon is 9.57 µM; in the experiment with PC-3 prostate it was 5.63 µM; with SR leukemia it was 41.7 µM; in the experiment with CCRF-CEM leukemia, 9.72 µM; in the experiment with SF-539 CNS, more than 100 µM; in the experiment with LOX IMVI melanoma it was more than 100 µM. For the same molecule, the GI50 in the experiment with NCI-H460 lung was 52.2 µM; in the experiment on OVCAR-8 ovarian, more than 100 µM; with SK-MEL-28 melanoma it was more than 100 µM; in the experiment with NCI-H522 lung, 10 µM. For the same molecule, the TGI in the experiment with HCT-116 colon, in the experiment with PC-3 prostate, in the experiment on SR leukemia, in the experiment with CCRF-CEM leukemia, with SF-539 CNS and with LOX IMVI melanoma was more than 100 µM throughout. The TGI with NCI-H460 lung, in the experiment on OVCAR-8 ovarian, in the experiment with SK-MEL-28 melanoma and in the experiment with NCI-H522 lung was more than 100 µM in each case.

Regarding `CCOC(=O)c1cnc2c(C)cccc2c1Nc1ccc(C(C)=O)cc1`, the GI50 in the experiment on HCT-116 colon was 14.2 µM; in the experiment on PC-3 prostate it was 36.6 µM; in the experiment with SR leukemia, 60.8 µM; in the experiment with CCRF-CEM leukemia, more than 100 µM; in the experiment on SF-539 CNS, 34.3 µM; with LOX IMVI melanoma, 47 µM. In addition, the GI50 was 59.3 µM in the experiment on NCI-H460 lung, 33.8 µM in the experiment on OVCAR-8 ovarian, 50.2 µM in the experiment with SK-MEL-28 melanoma and 14.9 µM in the experiment on NCI-H522 lung. The TGI with HCT-116 colon, in the experiment with PC-3 prostate, with SR leukemia, in the experiment on CCRF-CEM leukemia, with SF-539 CNS and with LOX IMVI melanoma was more than 100 µM throughout. In addition, the TGI in the experiment with NCI-H460 lung, in the experiment on OVCAR-8 ovarian, with SK-MEL-28 melanoma and in the experiment with NCI-H522 lung was more than 100 µM throughout.

As for `NS(=O)(=O)OCCCCCCCOS(N)(=O)=O`, the TGI with HCT-116 colon came to 820 µM; in the experiment on PC-3 prostate it was 1240 µM; in the experiment with SR leukemia it was 912 µM; with CCRF-CEM leukemia, 1140 µM; in the experiment with SF-539 CNS it was 645 µM; with LOX IMVI melanoma, 724 µM. Further, the TGI in the experiment on NCI-H460 lung amounted to 401 µM; with OVCAR-8 ovarian, 707 µM; in the experiment on SK-MEL-28 melanoma, 1680 µM; in the experiment on NCI-H522 lung, 916 µM.

Consider `O=C(COc1cccc(/C=C2\CSc3ccccc3C2=O)c1)Nc1nccs1`, for which the GI50 was 1.6 µM in the experiment with HCT-116 colon; 1.82 µM in the experiment on PC-3 prostate; 0.557 µM in the experiment with SR leukemia; 1.26 µM with CCRF-CEM leukemia; 2.4 µM in the experiment on SF-539 CNS; 1.58 µM in the experiment on LOX IMVI melanoma. For the same molecule, the GI50 with NCI-H460 lung was 10 µM; in the experiment with OVCAR-8 ovarian, 3.08 µM; in the experiment with SK-MEL-28 melanoma, 3.75 µM; in the experiment with NCI-H522 lung, 1.55 µM. Besides, the TGI came to 2.96 µM in the experiment on HCT-116 colon; 4.24 µM with PC-3 prostate; 2.44 µM in the experiment with SR leukemia; 4.06 µM in the experiment on CCRF-CEM leukemia; 13.3 µM in the experiment with SF-539 CNS; 3.06 µM in the experiment on LOX IMVI melanoma. Besides, the TGI with NCI-H460 lung stood at 25.5 µM; with OVCAR-8 ovarian, 10.4 µM; in the experiment on SK-MEL-28 melanoma it was 12.4 µM; in the experiment with NCI-H522 lung, 3.27 µM.

As to `COc1cccc(-c2cc(=O)c3ccccc3[nH]2)c1`, the TGI in the experiment on HCT-116 colon is more than 100 µM; with SR leukemia, more than 100 µM; with CCRF-CEM leukemia it was more than 100 µM; with SF-539 CNS, 18.7 µM; with LOX IMVI melanoma it was more than 100 µM; in the experiment on NCI-H460 lung, more than 100 µM. Moreover, the TGI with OVCAR-8 ovarian is more than 72.7 µM; with SK-MEL-28 melanoma it was more than 100 µM; in the experiment on NCI-H522 lung, more than 34.2 µM.

Consider `CSc1ccc2c(c1)C(N1CCN(C)CC1)Cc1ccccc1S2` (stereo not drawn), for which the GI50 in the experiment on HCT-116 colon was 1.98 µM; in the experiment with PC-3 prostate it was 1.89 µM; in the experiment with SR leukemia it was 1.66 µM; with CCRF-CEM leukemia, 1.7 µM; with SF-539 CNS, 1.87 µM; in the experiment on LOX IMVI melanoma, 1.63 µM. Moreover, the GI50 in the experiment on NCI-H460 lung is 1.74 µM; with OVCAR-8 ovarian, 2.07 µM; in the experiment with SK-MEL-28 melanoma it was 1.64 µM; with NCI-H522 lung, 1.76 µM. The TGI with HCT-116 colon was 16 µM and 4.03 µM; in the experiment with PC-3 prostate, 17.6 µM and 6.51 µM; in the experiment with SR leukemia it was 5.21 µM and 3.83 µM; in the experiment with CCRF-CEM leukemia it was 0.845 µM and 3.84 µM; in the experiment with SF-539 CNS, 18.9 µM and 3.61 µM; with LOX IMVI melanoma, 4.05 µM and 3.05 µM. Moreover, the TGI was 7.12 µM and 3.45 µM with NCI-H460 lung; 22.8 µM and 5.35 µM in the experiment on OVCAR-8 ovarian; 3.06 µM in the experiment on SK-MEL-28 melanoma; 10.2 µM and 3.29 µM with NCI-H522 lung.

For `COC(=O)CSSCc1ccc([N+](=O)[O-])cc1`, the TGI in the experiment with HCT-116 colon came out at 59.6 µM; in the experiment with PC-3 prostate, 81 µM; with SR leukemia, 70.2 µM; in the experiment with CCRF-CEM leukemia, 88 µM; in the experiment with SF-539 CNS, 32.7 µM; in the experiment on LOX IMVI melanoma, 30.3 µM. The TGI in the experiment on NCI-H460 lung is more than 100 µM; in the experiment with OVCAR-8 ovarian, 82.1 µM; in the experiment with SK-MEL-28 melanoma, 36.7 µM; with NCI-H522 lung it was 30.8 µM.

For the molecule `Cn1c(-c2c(N)n(CCCN3CCOCC3)c3nc(C#N)c(C#N)nc23)nc2ccccc21`, the GI50 in the experiment on HCT-116 colon is 4.03 µM; in the experiment with PC-3 prostate it was 3.82 µM; with SR leukemia, 2.66 µM; with CCRF-CEM leukemia it was 2.69 µM; in the experiment with SF-539 CNS, 1.85 µM; in the experiment on LOX IMVI melanoma it was 11.3 µM. Moreover, the GI50 in the experiment on NCI-H460 lung was more than 42.5 µM; in the experiment on OVCAR-8 ovarian it was 4.99 µM; in the experiment with SK-MEL-28 melanoma, 3.03 µM; in the experiment with NCI-H522 lung, 26.8 µM. The TGI is more than 33.4 µM in the experiment on HCT-116 colon; more than 100 µM with PC-3 prostate; more than 26.6 µM in the experiment with SR leukemia; more than 28.9 µM with CCRF-CEM leukemia; 7 µM with SF-539 CNS; more than 52.5 µM with LOX IMVI melanoma. Also, the TGI in the experiment with NCI-H460 lung is more than 64.3 µM; in the experiment on OVCAR-8 ovarian it was more than 100 µM; in the experiment with SK-MEL-28 melanoma it was 11.8 µM; in the experiment on NCI-H522 lung, more than 100 µM.
